# Laboratory results taken from patent publication US20190047966A1, “NOVEL COMPOUND AND PHARMACOLOGICALLY ACCEPTABLE SALT THEREOF” (MEIJI SEIKA PHARMA CO., LTD., priority 2016, published 2019).
# Structures can show the parent of a compound that is named as a salt.
# What was measured:
# [1] = molecular target: T1, human histamine H4 receptor (Homo sapiens, UniProt Q9H3N8); assay: Evaluation of Human H4 Receptor Affinity ([3H]histamine binding); settings: inhibition constant Ki, CHO-K1 membrane preparation, read-out: Evaluation of H4 Receptor Affinity
# T1 construct: purchased PerkinElmer Inc; host or cells: CHO-K1
# How it was run: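 Radioligand displacement: compound competes with 8.2 nM [3H]histamine at recombinant human H4 receptor in CHO-K1 membranes (Tris-HCl 50 mM pH 7.4, EDTA 1.25 mM; 25 °C, 90 min), with filter-bound radioactivity counted. IC50 was converted to Ki via Cheng-Prusoff (Kd 5.7 nM); 1.0 μM histamine set nonspecific binding.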
# [2] = molecular target: human histamine H1 receptor (Homo sapiens, UniProt P35367); assay: Evaluation of Human H1 Receptor Affinity ([3H]pyrilamine binding); design: purchased PerkinElmer Inc; host or cells: CHO-K1; settings: inhibition constant Ki, CHO-K1 membrane preparation
# Sequence of human histamine H1 receptor (P35367 whole entry): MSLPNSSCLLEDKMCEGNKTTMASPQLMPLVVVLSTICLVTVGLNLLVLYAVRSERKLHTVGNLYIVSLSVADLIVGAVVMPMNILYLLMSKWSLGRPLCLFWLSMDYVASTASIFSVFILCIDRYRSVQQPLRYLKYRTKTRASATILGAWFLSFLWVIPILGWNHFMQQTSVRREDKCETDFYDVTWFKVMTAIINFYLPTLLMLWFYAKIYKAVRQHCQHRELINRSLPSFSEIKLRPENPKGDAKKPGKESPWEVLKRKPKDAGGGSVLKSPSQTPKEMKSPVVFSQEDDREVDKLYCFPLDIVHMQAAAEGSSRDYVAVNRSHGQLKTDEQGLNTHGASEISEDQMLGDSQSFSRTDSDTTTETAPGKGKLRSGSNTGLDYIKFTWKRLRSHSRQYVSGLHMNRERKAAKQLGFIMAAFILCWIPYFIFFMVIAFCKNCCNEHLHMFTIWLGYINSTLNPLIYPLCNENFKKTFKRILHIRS
# How it was run: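 Ki values are Cheng-Prusoff conversions of IC50 (Kd 1.1 nM) from radioligand displacement of 1.2 nM [3H]pyrilamine, with 1.0 μM pyrilamine defining nonspecific binding.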
Ki [1],Ki [2],SMILES
< 100 nM,< 100 nM,"Nc1nc2c(c(N3CCN(CCOCC4(CCC(=O)O)COC4)CC3)n1)CCc1cc(OCc3ccc(Cl)cc3)ccc1-2 [Example 163, 3-(3-((2-(4-(2-amino-8-((4-chlorobenzyl)oxy)-5,6-dihydrobenzo[h]quinazolin-4-yl)piperazin-1-yl)ethoxy)methyl)oxetan-3-yl)propanoic acid]"
< 100 nM,< 100 nM,"CN1CCN(c2nc(N)nc3c2CCc2cc(OCc4ccc(Br)cc4)ccc2-3)CC1 [Example 197, 8-((4-bromobenzyl)oxy)-4-(4-methylpiperazin-1-yl)-5,6-dihydrobenzo[h]quinazolin-2-amine]"
100 to 500 nM,100 to 500 nM,"CN1CCN(c2nc(N)nc3c2CCc2cc(OCC4CCOCC4)ccc2-3)CC1 [Example 199, 4-(4-methylpiperazin-1-yl)-8-((tetrahydro-2H-pyran-4-yl)methoxy)-5,6-dihydrobenzo[h]quinazolin-2-amine]"
< 100 nM,< 100 nM,"N#CC1(C(=O)O)CCC(COCCN2CCN(c3nc(N)nc4c3CCc3cc(OCc5ccc(OC(F)(F)F)cc5)ccc3-4)CC2)CC1 (stereo not shown) [Example 175, 4-((2-(4-(2-amino-8-((4-(trifluoromethoxy)benzyl)oxy)-5,6-dihydrobenzo[h]quinazolin-4-yl)piperazin-1-yl)ethoxy)methyl)-1-cyanocyclohexane-1-carboxylic acid]"
< 100 nM,< 100 nM,"Cc1cc(OC(F)(F)F)ccc1COc1ccc2c(c1)CCc1c-2nc(N)nc1N1CCN(CCO[C@H]2C[C@@H](C(=O)O)C2)CC1 [Example 208, cis-3-(2-(4-(2-amino-8-((2-methyl-4-(trifluoromethoxy)benzyl)oxy)-5,6-dihydrobenzo[h]quinazolin-4-yl)piperazin-1-yl)ethoxy)cyclobutane-1-carboxylic acid]"
< 100 nM,< 100 nM,"Cn1cc(COCCN2CCN(c3nc(N)nc4c3CCc3cc(OCc5ccc(Cl)cc5)ccc3-4)CC2)cc1C(=O)O [Example 156, 4-((2-(4-(2-amino-8-((4-chlorobenzyl)oxy)-5,6-dihydrobenzo[h]quinazolin-4-yl)piperazin-1-yl)ethoxy)methyl)-1-methyl-1H-pyrrole-2-carboxylic acid hydrochloride]"
100 to 500 nM,< 100 nM,Nc1nc2c(c(N3CCN(CCOC[C@H]4C[C@@H](C(=O)O)O4)CC3)n1)CCc1cc(OCc3ccc(OC(F)(F)F)cc3)ccc1-2 (relative stereo) [Example 176]
< 100 nM,< 100 nM,"CC1(COCCN2CCN(c3nc(N)nc4c3CCc3cc(OCc5ccc(Cl)cc5)ccc3-4)CC2)CCC(C(=O)O)CC1 (stereo not drawn) [Example 164, cis- or trans-4-((2-(4-(2-amino-8-((4-chlorobenzyl)oxy)-5,6-dihydrobenzo[h]quinazolin-4-yl)piperazin-1-yl)ethoxy)methyl)-4-methylcyclohexane-1-carboxylic acid]"
< 100 nM,< 100 nM,"CN1CCN(c2nc(N)nc3c2CCc2cc(NS(=O)(=O)c4ccc(OCC(F)(F)F)cc4)ccc2-3)CC1 [Example 191, N-(2-amino-4-(4-methylpiperazin-1-yl)-5,6-dihydrobenzo[h]quinazolin-8-yl)-4-(2,2,2-trifluoroethoxy)benzenesulfonamide]"

# The remaining lines, values behind:
SMILES,Ki [1],Ki [2]
"Nc1nc2c(c(N3CCN(CCc4cccc(OCC(=O)O)c4)CC3)n1)CCc1cc(OCc3ccc(Cl)cc3)ccc1-2 [Example 139, 2-(3-(2-(4-(2-amino-8-((4-chlorobenzyl)oxy)-5,6-dihydrobenzo[h]quinazolin-4-yl)piperazin-1-yl)ethyl)phenoxy)acetic acid dihydrochloride]",100 to 500 nM,< 100 nM
"N#CCOCCOCCN1CCN(c2nc(N)nc3c2CCc2cc(OCc4ccc(Cl)cc4)ccc2-3)CC1 [Example 10, 2-(2-(2-(4-(2-amino-8-((4-chlorobenzyl)oxy)-5,6-dihydrobenzo[h]quinazolin-4-yl)piperazin-1-yl)ethoxy)ethoxy)acetonitrile]",< 100 nM,< 100 nM
"Nc1nc2c(c(N3CCN(CCOCc4ccc(C(=O)O)cc4)CC3)n1)CCc1cc(OCc3ccc(Cl)cc3)ccc1-2 [128(b), 4-((2-(4-(2-amino-8-((4-chlorobenzyl)oxy)-5,6-dihydrobenzo[h]quinazolin-4-yl)piperazin-1-yl)ethoxy)methyl)benzoic acid]",< 100 nM,< 100 nM
"CN1CCN(c2nc(N)nc3c2CCc2cc(NS(=O)(=O)CCc4ccccc4)ccc2-3)CC1 [Example 51, N-(2-amino-4-(4-methylpiperazin-1-yl)-5,6-dihydrobenzo[h]quinazolin-8-yl)-6-phenylethane-1-sulfonamide]",< 100 nM,< 100 nM
"COC(=O)c1ccc(COCCN2CCN(c3nc(N)nc4c3CCc3cc(OCc5ccc(OC(F)(F)F)cc5)ccc3-4)CC2)o1 [20(a), methyl 5-((2-(4-(2-amino-8-((4-(trifluoromethoxy)benzyl)oxy)-5,6-dihydrobenzo[h]quinazolin-4-yl)piperazin-1-yl)ethoxy)methyl)furan-2-carboxylate]",100 to 500 nM,< 100 nM
"Nc1nc2c(c(N3CCN(CCO[C@H]4CC[C@@H](C(=O)O)CC4)CC3)n1)CCc1cc(OCc3ccc(Cl)cc3)ccc1-2 [Example 24, cis-4-(2-(4-(2-amino-8-((4-chlorobenzyl)oxy)-5,6-dihydrobenzo[h]quinazolin-4-yl)piperazin-1-yl)ethoxy)cyclohexane-1-carboxylic acid]",100 to 500 nM,< 100 nM
"Nc1nc2c(c(N3CCN(CCOC4CC4C(=O)O)CC3)n1)CCc1cc(OCc3ccc(Cl)cc3)ccc1-2 (stereo not shown) [Example 154, 2-(2-(4-(2-amino-8-((4-chlorobenzyl)oxy)-5,6-dihydrobenzo[h]quinazolin-4-yl)piperazin-1-yl)ethoxy)cyclopropane-1-carboxylic acid]",100 to 500 nM,< 100 nM
"Nc1nc2c(c(N3CCN(CCc4ccc(OCC(=O)O)cc4)CC3)n1)CCc1cc(OCc3ccc(Cl)cc3)ccc1-2 [Example 140, 2-(4-(2-(4-(2-amino-8-((4-chlorobenzyl)oxy)-5,6-dihydrobenzo[h]quinazolin-4-yl)piperazin-1-yl)ethyl)phenoxy)acetic acid dihydrochloride]",100 to 500 nM,< 100 nM
"CN1CCN(c2nc(N)nc3c2CCc2cc(NS(=O)(=O)CCCc4ccccc4)ccc2-3)CC1 [Example 52, N-(2-amino-4-(4-methylpiperazin-1-yl)-5,6-dihydrobenzo[h]quinazolin-8-yl)-3-phenylpropane-1-sulfonamide]",< 100 nM,< 100 nM
"COC(=O)C1CN(C(=O)CCCN2CCN(c3nc(N)nc4c3CCc3cc(OCc5ccc(Cl)cc5)ccc3-4)CC2)C1 [Example 117, methyl 1-(4-(4-(2-amino-8-((4-chlorobenzyl)oxy)-5,6-dihydrobenzo[h]quinazolin-4-yl)piperazin-1-yl)butanoyl)azetidine-3-carboxylate]",< 100 nM,100 to 500 nM
"CCOC(=O)[C@]1(C)C[C@H](OCCN2CCN(c3nc(N)nc4c3CCc3cc(OCc5ccc(Cl)cc5)ccc3-4)CC2)C1 [26(a), ethyl cis-3-(2-(4-(2-amino-8-((4-chlorobenzyl)oxy)-5,6-dihydrobenzo[h]quinazolin-4-yl)piperazin-1-yl)ethoxy)-1-methylcyclobutane-1-carboxylate]",100 to 500 nM,< 100 nM
"Nc1nc2c(c(N3CCN(CCO[C@H]4C[C@H](C(N)=O)C4)CC3)n1)CCc1cc(OCc3ccc(OC(F)(F)F)cc3)ccc1-2 [Example 34, trans-3-(2-(4-(2-amino-8-((4-(trifluoromethoxy)benzyl)oxy)-5,6-dihydrobenzo[h]quinazolin-4-yl)piperazin-1-yl)ethoxy)cyclobutane-1-carboxamide]",< 100 nM,< 100 nM
"COC(=O)c1ccc(COCCN2CCN(c3nc(N)nc4c3CCc3cc(OCc5ccc(Cl)cc5)ccc3-4)CC2)o1 [127(a), methyl 5-((2-(4-(2-amino-8-((4-chlorobenzyl)oxy)-5,6-dihydrobenzo[h]quinazolin-4-yl)piperazin-1-yl)ethoxy)methyl)furan-2-carboxylate]",< 100 nM,< 100 nM
"Nc1nc2c(c(N3CCN(CCOCCOCC(=O)O)CC3)n1)CCc1cc(OCc3ccccc3)ccc1-2 [Example 119, 2-(2-(2-(4-(2-amino-8-(benzyloxy)-5,6-dihydrobenzo[h]quinazolin-4-yl)piperazin-1-yl)ethoxy)ethoxy)acetic acid bis(trifluoroacetate)]",100 to 500 nM,< 100 nM
"CS(=O)(=O)NCCOCCOCCN1CCN(c2nc(N)nc3c2CCc2cc(OCc4ccccc4)ccc2-3)CC1 [Example 110, N-(2-(2-(2-(4-(2-amino-8-(benzyloxy)-5,6-dihydrobenzo[h]quinazolin-4-yl)piperazin-1-yl)ethoxy)ethoxy)ethyl)methanesulfonamide dihydrochloride]",< 100 nM,< 100 nM
"CCOC(=O)C1(C#N)CCC(COCCN2CCN(c3nc(N)nc4c3CCc3cc(OCc5ccc(Cl)cc5)ccc3-4)CC2)CC1 (stereo not drawn) [160(a), ethyl trans- or cis-4-((2-(4-(2-amino-8-((4-chlorobenzyl)oxy)-5,6-dihydrobenzo[h]quinazolin-4-yl)piperazin-1-yl)ethoxy)methyl)-1-cyanocyclohexane-1-carboxylate]",100 to 500 nM,< 100 nM
"Nc1nc2c(c(N3CCN(CCO[C@@H]4C[C@@H]5[C@H](C4)[C@H]5C(=O)O)CC3)n1)CCc1cc(OCc3ccc(OC(F)(F)F)cc3)ccc1-2 [Example 147, (1R,3s,55,6r)-3-(2-(4-(2-amino-8-((4-(trifluoromethoxy)benzyl)oxy)-5,6-dihydrobenzo[h]quinazolin-4-yl)piperazin-1-yl)ethoxy)bicyclo[3.1.0]hexane-6-carboxylic acid]",< 100 nM,< 100 nM
